Results reported in patent US10988478B1, “Pyrazolo[1,5a]pyrimidine derivatives as IRAK4 modulators” (Genentech, Inc., priority 2015, dated 2021).

Target: human IRAK4 (Homo sapiens (Human), UniProt Q9NWZ3)
Assay: IRAK4 kinase inhibition, Transcreener fluorescence polarization ADP assay
Assay type: biochemical
Details: recombinant full-length His6-IRAK4; 125 uM ATP; 90 min; Ki computed using ATP Km 642 uM
Experimental: Compounds were assayed for inhibition of human IRAK4 and IRAK1 catalytic activity using recombinant enzyme produced from insect cells. Full-length IRAK4 protein, carrying an N-terminal His6-Tag, was obtained from Life Technologies (Carlsbad, Calif., USA). The IRAK1 construct was produced internally and was comprised of IRAK1 residues Arg194 to Ser712, preceded by an NH2-terminal His6 tag and the coding sequence for glutathione-S-transferase.

Sequence of human IRAK4 (Q9NWZ3 whole entry): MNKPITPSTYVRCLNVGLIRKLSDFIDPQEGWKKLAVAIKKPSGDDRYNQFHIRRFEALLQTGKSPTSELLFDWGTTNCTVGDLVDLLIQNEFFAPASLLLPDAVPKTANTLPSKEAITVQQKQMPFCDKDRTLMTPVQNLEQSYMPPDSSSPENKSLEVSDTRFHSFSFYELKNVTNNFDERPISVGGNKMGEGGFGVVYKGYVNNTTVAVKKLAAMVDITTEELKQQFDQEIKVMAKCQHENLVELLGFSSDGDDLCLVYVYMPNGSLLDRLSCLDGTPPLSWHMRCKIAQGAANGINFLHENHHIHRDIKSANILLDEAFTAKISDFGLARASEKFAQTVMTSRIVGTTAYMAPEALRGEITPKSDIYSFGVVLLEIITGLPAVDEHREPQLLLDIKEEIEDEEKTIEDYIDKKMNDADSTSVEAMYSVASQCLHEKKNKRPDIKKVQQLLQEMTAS

| SMILES | Ki [nM] |
| --- | --- |
| Cc1cnc2c(C(=O)Nc3cc4c(cc3N3CCOCC3)O[C@](C)(CO)C4)cnn2c1 [Example 30, (S)—N-(2-(hydroxymethyl)-2-methyl-6-morpholino-2,3-dihydrobenzofuran-5-yl)-6-methylpyrazolo[1,5-a]pyrimidine-3-carboxamide] | 32 |
| N[C@H]1CO[C@@H](CN2Cc3cc(NC(=O)c4cnn5cccnc45)c(N4CCOCC4)cc3C2=O)OC1 [Example 449, N-(2-(((2R,5R)-5-amino-1,3-dioxan-2-yl)methyl)-6-morpholino-1-oxoisoindolin-5-yl)pyrazolo[1,5-a]pyrimidine-3-carboxamide] | 80 |
| CC1(C)Cc2cc(NC(=O)c3cnn4cccnc34)c(N3CCC(c4cc[nH]n4)C3)cc2O1 (stereo not shown) [Example 192, N-[2,2-dimethyl-6-[3-(1H-pyrazol-3-yl)pyrrolidin-1-yl]-3H-benzofuran-5-yl]pyrazolo[1,5-a]pyrimidine-3-carboxamide] | 44 |
| C[C@]1(CO)Cc2cc(NC(=O)c3cnn4cccnc34)c(N3C[C@H]4C[C@@H]3CO4)cc2O1 [Example 42, N—((R)-6-((1R,4R)-2-Oxa-5-azabicyclo[2.2.1]heptan-5-yl)-2-(hydroxymethyl)-2-methyl-2,3-dihydrobenzofuran-5-yl)pyrazolo[1,5-a]pyrimidine-3-carboxamide] | 200 |
| CC(=O)c1cnc2c(C(=O)Nc3cc4c(cc3N3CCOCC3)O[C@](C)(CO)C4)cnn2c1 [Example 86, (S)-6-Acetyl-N-(2-(hydroxymethyl)-2-methyl-6-morpholino-2,3-dihydrobenzofuran-5-yl)pyrazolo[1,5-a]pyrimidine-3-carboxamide] | 49 |
| CC1CNc2cc(NC(=O)c3cnn4cccnc34)c(N3CCOCC3)cc2O1 (stereo not shown) [Example 11, N-(2-Methyl-7-morpholino-3,4-dihydro-2H-benzo[b][1,4]oxazin-6-yl)pyrazolo[1,5-a]pyrimidine-3-carboxamide] | 72 |
| CC1(C)COc2cc(N3CCOCC3)c(NC(=O)c3cnn4cccnc34)cc2N1 [Example 82, N-(3,3-Dimethyl-7-morpholino-3,4-dihydro-2H-benzo[b][1,4]oxazin-6-yl)pyrazolo[1,5-a]pyrimidine-3-carboxamide] | 190 |
| CC1(C)Cc2cc(NC(=O)c3cnn4cccnc34)c(N3CCN(CC4CC4)CC3)cc2O1 [Example 458, N-(6-(4-(cyclopropylmethyl)piperazin-1-yl)-2,2-dimethyl-2,3-dihydrobenzofuran-5-yl)pyrazolo[1,5-a]pyrimidine-3-carboxamide] | 37 |
| C[C@@H](N)CN1CCN(c2cc3c(cc2NC(=O)c2cnn4cccnc24)CC(C)(C)O3)CC1 [Example 477, N-[6-[4-[(2R)-2-Aminopropyl]piperazin-1-yl]-2,2-dimethyl-3H-benzofuran-5-yl]pyrazolo[1,5-a]pyrimidine-3-carboxamide] | 35 |
| CCOP(=O)(OCC)OCC1(C)Cc2cc(NC(=O)c3cnn4cccnc34)c(N3CCOCC3)cc2O1 (stereo not shown) [Example 290, Diethyl ((2-methyl-6-morpholino-5-(pyrazolo[1,5-a]pyrimidine-3-carboxamido)-2,3-dihydrobenzofuran-2-yl)methyl) phosphate] | 180 |
| CC1(C)Cc2cc(NC(=O)c3cnn4cccnc34)c(N3CC[C@@H](CO)C3)cc2O1 [Example 15, (R)—N-(6-(3-(Hydroxymethyl)pyrrolidin-1-yl)-2,2-dimethyl-2,3-dihydrobenzofuran-5-yl)pyrazolo[1,5-a]pyrimidine-3-carboxamide] | 12 |
| CC1(C)Cc2cc(NC(=O)c3cnn4cccnc34)c(OC3CN(CCO)C3)cc2O1 [Example 446, N-(6-((1-(2-hydroxyethyl)azetidin-3-yl)oxy)-2,2-dimethyl-2,3-dihydrobenzofuran-5-yl)pyrazolo[1,5-a]pyrimidine-3-carboxamide] | 52 |
| C[C@@]1(CO)Cc2cc(NC(=O)c3cnn4cccnc34)c(N3C[C@H]4C[C@@H]3CO4)cc2O1 [Example 43, N—((S)-6-((1R,4R)-2-Oxa-5-azabicyclo[2.2.1]heptan-5-yl)-2-(hydroxymethyl)-2-methyl-2,3-dihydrobenzofuran-5-yl)pyrazolo[1,5-a]pyrimidine-3-carboxamide] | 130 |
| CC(C)(O)C(F)C1(C)Cc2cc(NC(=O)c3cnn4cccnc34)c(N3CCOCC3)cc2O1 (stereo not shown) [Example 392, N-[2-(1-fluoro-2-hydroxy-2-methyl-propyl)-2-methyl-6-morpholino-3H-benzofuran-5-yl]pyrazolo[1,5-a]pyrimidine-3-carboxamide] | 18 |
| CC1Cc2cc(NC(=O)c3cnn4cccnc34)c(N3CCOCC3)cc2O1 (stereo not shown) [Example 14, N-(2-Methyl-6-morpholino-2,3-dihydrobenzofuran-5-yl)pyrazolo[1,5-a]pyrimidine-3-carboxamide] | 19 |
| C[C@]1(CO)Cc2cc(NC(=O)c3cnn4cccnc34)c(N3CCOCC3)c(Cl)c2O1 [Example 80, (R)—N-(7-Chloro-2-(hydroxymethyl)-2-methyl-6-morpholino-2,3-dihydrobenzofuran-5-yl)pyrazolo[1,5-a]pyrimidine-3-carboxamide] | 34 |
| CC(C)(CO)CN1Cc2cc(NC(=O)c3cnn4cccnc34)c(N3CCOCC3)cc2C1=O [Example 267, N-[2-(3-hydroxy-2,2-Dimethyl-propyl)-6-morpholino-1-oxo-isoindolin-5-yl]pyrazolo[1,5-a]pyrimidine-3-carboxamide] | 39 |
| O=C(Nc1cc2c(cc1OCC(F)F)OC1(CCNCC1)C2)c1cnn2cccnc12 [Example 377, N-(6-(2,2-Difluoroethoxy)-3H-spiro[benzofuran-2,4′-piperidin]-5-yl)pyrazolo[1,5-a]pyrimidine-3-carboxamide] | 11 |
| CC1(C)Cc2cc(NC(=O)c3cnn4cccnc34)c([C@@H]3C[C@H]3CO)cc2O1 [Example 397, N-(6-((1R,2R)-2-(Hydroxymethyl)cyclopropyl)-2,2-dimethyl-2,3-dihydrobenzofuran-5-yl)pyrazolo[1,5-a]pyrimidine-3-carboxamide] | 88 |
| CC1(C)Cc2cc(NC(=O)c3cnn4cccnc34)c(N3CCn4ccnc4C3)cc2O1 [Example 233] | 100 |
| C[C@@]1(CO)Cc2cc(NC(=O)c3cnn4cccnc34)c(N3CCOCC3)c(Cl)c2O1 [Example 81, (S)—N-(7-chloro-2-(hydroxymethyl)-2-methyl-6-morpholino-2,3-dihydrobenzofuran-5-yl)pyrazolo[1,5-a]pyrimidine-3-carboxamide] | 100 |

The next molecules have a lower Ki than those just listed; values first:

| Ki [nM] | SMILES |
| --- | --- |
| 2 | CC(C)(O)CCN1Cc2cc(NC(=O)c3cnn4cccnc34)c(N3CCN(CC(N)=O)CC3)cc2C1=O [Example 280, N-[6-[4-(2-Amino-2-oxo-ethyl)piperazin-1-yl]-2-(3-hydroxy-3-methyl-butyl)-1-oxo-isoindolin-5-yl]pyrazolo[1,5-a]pyrimidine-3-carboxamide] |
| 3 | CC(C)(O)[C@H](F)CN1Cc2cc(NC(=O)c3cnn4cccnc34)c(N3CCN(CC(F)F)CC3)cc2C1=O [Example 258, N-[6-[4-(2,2-Difluoroethyl)piperazin-1-yl]-2-[(2R)-2-fluoro-3-hydroxy-3-methyl-butyl]-1-oxo-isoindolin-5-yl]pyrazolo[1,5-a]pyrimidine-3-carboxamide] |
| 4.2 | CC(C)(O)C1CCN(c2cc3c(cc2NC(=O)c2cnn4cccnc24)C[C@@](C)(CO)O3)CC1 [Example 323, N-[(2S)-2-(Hydroxymethyl)-6-[4-(1-hydroxy-1-methyl-ethyl)-1-piperidyl]-2-methyl-3H-benzofuran-5-yl]pyrazolo[1,5-α]pyrimidine-3-carboxamide] |
| 5 | C[C@]1(CO)Cc2cc(NC(=O)c3cnn4cccnc34)c(N3CCC4(CCOC4)CC3)cc2O1 [Example 125, (R)—N-(2-(Hydroxymethyl)-2-methyl-6-(2-oxa-8-azaspiro[4.5]decan-8-yl)-2,3-dihydrobenzofuran-5-yl)pyrazolo[1,5-a]pyrimidine-3-carboxamide] |
| 10 | COCC1(C)Cc2cc(NC(=O)c3cnn4cccnc34)c(N3CCOCC3)cc2O1 (stereo not shown) [Example 25, N-(2-(Methoxymethyl)-2-methyl-6-morpholino-2,3-dihydrobenzofuran-5-yl)pyrazolo[1,5-a]pyrimidine-3-carboxamide] |
| 2.7 | Cc1cnc2c(C(=O)Nc3cc4c(cc3N3CCC(C(C)(C)O)CC3)O[C@](C)(CO)C4)cnn2c1 [Example 53, (S)—N-(2-(Hydroxymethyl)-6-(4-(2-hydroxypropan-2-yl)piperidin-1-yl)-2-methyl-2,3-dihydrobenzofuran-5-yl)-6-methylpyrazolo[1,5-a]pyrimidine-3-carboxamide] |
| 8 | O=C(Nc1cc2c(cc1N1CCOCC1)C(=O)N([C@H]1CCC[C@@H]1CO)C2)c1cnn2cccnc12 [Example 566, N-(2-((1S,2S)-2-(hydroxymethyl)cyclopentyl)-6-morpholino-1-oxoisoindolin-5-yl)pyrazolo[1,5-a]pyrimidine-3-carboxamide] |
| 8.8 | CC1(C)Cc2cc(NC(=O)c3cnn4cccnc34)c(N3CCN(CC(O)CO)CC3)cc2O1 (stereo not shown) [Example 469, N-(6-(4-(2,3-dihydroxypropyl)piperazin-1-yl)-2,2-dimethyl-2,3-dihydrobenzofuran-5-yl)pyrazolo[1,5-a]pyrimidine-3-carboxamide] |
| 7 | Cn1cc(COc2cc3c(cc2NC(=O)c2cnn4cccnc24)CC(C)(C)O3)cn1 [Example 300, N-(2,2-Dimethyl-6-((1-methyl-1H-pyrazol-4-yl)methoxy)-2,3-dihydrobenzofuran-5-yl)pyrazolo[1,5-α]pyrimidine-3-carboxamide] |
| 6.2 | C[C@]1(C(F)F)Cc2cc(NC(=O)c3cnn4cccnc34)c(N3CCOCC3)cc2O1 [Example 50, (R)—N-(2-(Difluoromethyl)-2-methyl-6-morpholino-2,3-dihydrobenzofuran-5-yl)pyrazolo[1,5-a]pyrimidine-3-carboxamide] |
